Source: patent US4847295A, “Cycloalkyl-substituted 4-aminophenyl halo derivatives and process for their preparation” (Farmitalia Carlo Erba S.r.l., priority 1987, dated 1989)

Legend:
[1] = system: aromatase; details: reported in literature; cited from earlier work
[2] = target: T1, human placental aromatase (Homo sapiens, UniProt P11511); experiment: Inhibition of human placental aromatase in vitro (3H2O release from labelled androstenedione, microsomal fraction); format: biochemical; details: for Relative potency: versus aminoglutethimide (1 by definition)
T1 construct: isolated from the microsomal fraction of human placental tissue; from tissue; host or cells: human placenta, microsomal fraction
T1 sequence (P11511 1-503): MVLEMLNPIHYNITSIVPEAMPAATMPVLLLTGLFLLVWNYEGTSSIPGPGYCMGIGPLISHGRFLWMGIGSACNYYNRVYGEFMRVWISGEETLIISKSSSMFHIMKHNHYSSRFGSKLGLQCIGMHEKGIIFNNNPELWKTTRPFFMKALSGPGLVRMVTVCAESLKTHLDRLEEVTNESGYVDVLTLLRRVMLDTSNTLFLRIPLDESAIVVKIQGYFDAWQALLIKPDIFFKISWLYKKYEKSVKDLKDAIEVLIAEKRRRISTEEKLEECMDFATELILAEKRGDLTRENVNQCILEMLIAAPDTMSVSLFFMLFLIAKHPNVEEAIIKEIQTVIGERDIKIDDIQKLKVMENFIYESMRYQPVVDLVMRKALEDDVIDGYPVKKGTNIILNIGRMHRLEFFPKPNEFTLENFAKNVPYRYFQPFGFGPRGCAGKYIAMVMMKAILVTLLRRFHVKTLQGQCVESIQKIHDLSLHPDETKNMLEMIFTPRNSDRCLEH
Method: The assay of the aromatase inhibition in vitro was carried out as follows: the enzyme system was isolated from the microsomal fraction of human placental tissue according to standard procedure.
All incubations were carried out in a shaking water bath at 37° C. in air in 10 mM potassium phosphate buffer, pH 7.5, which contained 100 mM Kcl, 1 mM EDTA and 1 mM dithiothreitol. The experiments were carried out in 1 ml incubation volume containing 50 nM 4-[^3 H]androstenedione, various concentrations of the inhibitors. 100 μm NADPH and 0.05 mg of microsomal proteins. After 15 minutes of incubation the reaction was stopped by the addition of chloroform (5 ml).
After centrifugation at 1500 xg for 5 minutes, aliquots (0.5 ml) were removed from the water phase for determination of ^3 H2 O formed.

Question: Which results are given for Nc1ccc(C2CCCCC2)cc1 [4-cyclohexylaniline]?
Answer: aromatase-inhibiting action (in words) [1]: more or less selective aromatase-inhibiting action; Relative potency [2]: 1.7

Question: For Nc1ccc(C(C(=O)NC2CCCCC2)C(F)(F)F)cc1 (racemic) [FCE 25331, N-cyclohexyl-2-(4'-aminophenyl)-3,3,3-trifluoropropanamide], which IC50 ([2]; human placental microsomes, 50 nM 4-[3H]androstenedione, 100 μm NADPH, pH 7.5, 37° C., 15 min) is on record?
Answer: 330 nM

Question: What about the Relative potency [2] of the same compound?
Answer: 6.4

Question: For CCC1(c2ccncc2)CCC(=O)NC1=O (centres unmarked) [4-pyridyl-3-ethyl-2,6-piperidinedione], which “aromatase-inhibiting action (in words)” value [1] is on record?
Answer: more or less selective aromatase-inhibiting action
